Experimental data as given in ChEMBL document CHEMBL5729407, “Substituted piperidine compounds and their use” (2022).

Columns and labels:
Orexin receptor type 2 = biological target: T1, Orexin receptor type 2 (Homo sapiens, UniProt O43614); test: (§1) Evaluation of Activity for OX1R and OX2R: HEK293 (human embryonic kidney 293) cells with forced expression of human OX1R (hOX1R) or human OX2R (hOX2R) were seeded in a 384-well microplate (Greiner) at 10,000 per well and cultured for 1 day in high-glucose-DMEM (FujiFilm Corp.—Wako Pure Chemical Industries, Ltd.) containing added 10% FBS ([…]) and 1% Penicillin-Streptomycin (FujiFilm Corp.—Wako Pure Chemical Industries, Ltd.). After removing the medium, 40 μL of assay buffer (20 mM HEPES (Sigma-Aldrich Japan, KK.), Hanks' balanced salt solution (Gibco), 0.1% BSA (Sigma-Aldrich Japan, KK.), 0.1% Pluronic F-127 (Invitrogen)) containing Calcium 4 dye (Molecular Device Corporation) and 2.5 mM probenecid (Sigma-Aldrich Japan, KK.) were added, and the plate was incubated for 60 minutes. After further adding 20 μL of assay buffer, 20 μL of assay buffer containing the test compound was added and reaction was initiated. Change in intracellular calcium ion concentration during the reaction was measured based on the fluorescence intensity ratio in terms of the fluorescence value with wavelength excitation at 480 nm and detection at 540 nm, using FDSS7000 (Hamamatsu Photonics, K.K.). The test compound was dissolved in DMSO to 10 mM, and diluted with assay buffer to a final concentration of from 3×10−11 M to 1×10−7 M (DMSO final concentration of 0.1%). […]; format: cell-based
T1 sequence (O43614 whole entry): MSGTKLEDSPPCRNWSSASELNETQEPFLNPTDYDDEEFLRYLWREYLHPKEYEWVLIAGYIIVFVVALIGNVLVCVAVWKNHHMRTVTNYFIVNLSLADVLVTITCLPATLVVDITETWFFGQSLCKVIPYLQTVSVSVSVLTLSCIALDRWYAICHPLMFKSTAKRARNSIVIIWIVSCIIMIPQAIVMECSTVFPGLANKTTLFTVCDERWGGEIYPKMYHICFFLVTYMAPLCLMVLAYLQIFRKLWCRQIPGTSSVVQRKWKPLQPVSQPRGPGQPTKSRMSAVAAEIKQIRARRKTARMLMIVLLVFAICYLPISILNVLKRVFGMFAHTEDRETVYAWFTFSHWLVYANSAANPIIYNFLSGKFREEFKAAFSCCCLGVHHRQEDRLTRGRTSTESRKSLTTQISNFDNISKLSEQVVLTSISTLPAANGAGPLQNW

[1] = biological target: T2, Orexin/Hypocretin receptor type 1 (Homo sapiens, UniProt O43613); test: as §1; format: cell-based
T2 sequence (O43613 whole entry): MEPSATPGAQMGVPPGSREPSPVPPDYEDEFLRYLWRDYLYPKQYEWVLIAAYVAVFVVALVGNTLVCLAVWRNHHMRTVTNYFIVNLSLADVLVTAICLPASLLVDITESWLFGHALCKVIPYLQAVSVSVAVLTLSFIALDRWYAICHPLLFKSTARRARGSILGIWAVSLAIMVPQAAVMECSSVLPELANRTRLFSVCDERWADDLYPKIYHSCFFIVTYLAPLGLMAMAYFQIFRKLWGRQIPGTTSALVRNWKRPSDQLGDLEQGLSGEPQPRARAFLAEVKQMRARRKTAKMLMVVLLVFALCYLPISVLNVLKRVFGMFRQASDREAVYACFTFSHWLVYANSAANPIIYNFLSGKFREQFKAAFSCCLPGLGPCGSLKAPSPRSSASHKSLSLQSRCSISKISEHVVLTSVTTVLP

`CO[C@@H]1CN(c2ncc(F)cn2)CC[C@@H]1[C@@H]1C[C@H]2CC[C@@H](C1)N2[C@@H](C(N)=O)C(C)C` was tested, and the EC50 (Orexin receptor type 2) was 3.08 nM and the EC50 [1] was over 100 nM.
